Consider two molecules from patent publication US20080267981A1, “Compositions and Methods for Delivery of Antitumor Agents” (The Scripps Research Institute, priority 2004, published 2008).

In general, IC50 refers to the concentration needed to halve the response being measured.

One test concerns SW1990 cells. The test can be described thus: MTT cell proliferation assay on SW1990 cells. Type of test: cell-based. To be noted: Homo sapiens. Here is the method: (§1) Cell proliferation assay. The cytotoxicity of scFv-drug or free drug was quantified by using the Vybrant MTT cell proliferation assay kit (Molecular Probes). Assays were performed using 48-well microtiter plates containing 2×10^4 SW1990 (HdFa) cells/well in 300 μL of phenol-free growth medium. Cells were allowed to attach to the wells for 12 hours. For determination of IC50, cells were incubated for 3 or 12 h at 37° C. with various concentrations of Pan10-drug conjugates, maleimide derivatives or free drugs. Then the incubation was continued in conjugate/drug-free medium and the MTT assay was performed at the end of the seventh day. Medium was replaced with 100 μL of fresh medium containing 1.2 mM MTT and the incubation continued for three more hours. The cells were then lysed by adding 100 μL of a 10 mM solution of HCL containing SDS (100 mg/mL). The cell lysis was allowed to proceed for a period of 8 hours at the end of which the plate was centrifuged at 3000 rpm for 3 min and the supernatant transferred in a 96-well plate and read at 570 nm. Each assay included a […]. All assays were performed at least twice. A set of 8 data points was obtained with various concentration of cytotoxicity agent. In order to obtain the IC50 values, data points from each set were fit to the sigmoidal dose-response curve defined by Equation 3 using Grafit5 (Leatherbarrow R. J. 2003. Grafit version 5.08, Erithieus Software Ltd, Staines, England).
y^a=min y+[(max y−min y)/(1+(IC50/x^b)^slope)] (Equation 3)
^bx=concentration of drug (drug-scF)
Data points which were outliers (typically 1-2 per experiment) were discarded.
SW1990 cells treated with Pan10, Pan10-FM, Pan10-3 or Pan10-4 were examined by inverted microscopy for a qualitative determination of the effect of the drug conjugates on the cell viability. […] The cytotoxic effect of the Pan10-drug conjugates in comparison with the toxicity of the free drugs was then quantified by the MTT (3-(4,5-dimethylthiazol-2-yl)-2,5,-diphenyltetrazolium bromide) cell-proliferation assay. Liu et al., J Neurochem, 69: 581-593, 1997; Berridge et al., Arch Biochem Biophys, 303: 474-482, 1993; Vistica et al., Cancer Res, 51: 2515-2520, 1991. SW1990 pancreatic carcinoma cells were seeded and allowed to attach in growth medium overnight. The cultures were then treated for either 3 or 12 h with increasing concentrations of free drugs or Pan10-drug conjugates.
For orientation: Tetrazolium dyes change colour on reduction, which living cells bring about.

The conditions of test [1]: Parrish et al. 2003; different cell line, exposure time and cytotoxicity assay; read-out: IC50, previously obtained values; cited from earlier work.
Another test has as its system HdFa cells. The test is described as follows: MTT cell proliferation assay on normal HdFa cells. The format is cell-based, human. To be noted: normal HdFa cells versus SW1990 cancer cells. Here is the method: as §1, with “In order to obtain the IC50 values, data points from each set were fit to the sigmoidal dose-response curve defined by Equation 3 using Grafit5 (Leatherbarrow R. J. 2003. Grafit version 5.08, Erithieus Software Ltd, Staines, England).” left out

In the case of `CC(=O)c1ccc2[nH]c(C(=O)N3C[C@@H](CCl)c4c3cc(O)c3ccccc43)cc2c1` [compound 1, 3-(5-acetylindole-2-carbonyl)-1-(S)-(chloromethyl)-5-hydroxy-1,2-dihydro-3H-benz[e]indole], the IC50 in the test on SW1990 cells (SW1990, 3 h) is 1.4 ± 0.2 nM; with SW1990 cells (SW1990, 12 h), 0.43 ± 0.17 nM; in test [1] it was 0.002 nM. The “IC50 on HdFa cells relative to IC50 against SW1990 cells” value in the test on HdFa cells is “roughly the same IC50 values against both cells lines”.

For the molecule `NCCCn1c(C(=O)Nc2ccc3[nH]c(C(=O)N4CC(CCl)c5c4cc(O)c4ccccc54)cc3c2)cc2ccccc21` (stereo not shown) [compound 2, 3-[5-(1-(3-aminopropyl)indole-2-carbonyl)aminoindole-2-carbonyl]-1-(chloromethyl)-5-hydroxy-1,2-dihydro-3H-benz[e]indole], the IC50 with SW1990 cells (SW1990, 3 h) was 32.1 ± 13.1 nM; with SW1990 cells (SW1990, 12 h), 4.3 ± 0.2 nM; in test [1], 0.03 nM.
